This note sets out measurements from patent US9150519B2, “6-amino-pyrimidine-4-carboxamide derivatives and related compounds which bind to the sphingosine 1-phosphate (S1P) receptor for the treatment of multiple sclerosis” (MERCK SERONO SA, priority 2007, dated 2015).

One test addresses S1P1 (Homo sapiens (Human), UniProt P21453). Description: 35S-GTPγS binding assay, S1P1 membranes. The test is classed as biochemical. The following applies: membranes from CHO cells expressing S1P1; read-out: S1P1 GTPyS EC50. The method, then: Membranes were prepared from CHO cells expressing S1P1 or S1P3 for use in ligand and […] binding studies. Cells were suspended in 50 mM TRIS, pH 7.4, 2 mM EDTA, 250 mM Sucrose (buffer A) and 1× Complete protease inhibitor cocktail (Roche), and disrupted at 4° C. by nitrogen decompression using a cell disruption bomb (Parr Instrument). Following centrifugation at 1000 RPM for 10 min at 4° C., the supernatant was suspended in buffer A and centrifuged again at 19000 RPM for 60 min at 4° C. The pellet was then suspended in 10 mM HEPES, pH 7.4, 1 mM EDTA, 250 mM Sucrose (Buffer B), and 1× Complete EDTA-free protease inhibitor cocktail and homogenized using a potter. Membranes were flash frozen in liquid nitrogen and stored at −80° C. [33P]sphingosine 1-phosphate (3000 Ci/mmol; American Radiolabeled Chemicals, Inc.) was added to test compounds in DMSO. […] Binding was performed for 60 min at room temperature on a shaker and bound radioactivity was measured on a PerkinElmer 1450 MicroBeta counter. Specific binding was calculated by subtracting remaining radioactivity in the presence of 1000-fold excess of unlabeled S1P. Binding data were analyzed using the GraphPad Prism program.
(§1) The assay was initiated with the addition of 20 μl of 1.5 nM [35S]-GTPγS (1100 Ci/mmol; GE Healthcare) in assay buffer. After 60 min incubation at 30° C. on a shaker, plates were centrifuged for 10 min at 2000 RPM. Supernatant was discarded and membrane bound radioactivity was measured on a PerkinElmer 1450 MicroBeta counter. Triplicate samples were averaged and expressed as % response relative to SIP activation in absence of compound (n=2).
(GTPγS resists hydrolysis and so accumulates on activated G proteins.)

A further test concerns the target S1P3 (Homo sapiens (Human), UniProt Q99500). Description: 35S-GTPγS binding assay, S1P3 membranes. The note with it: membranes from CHO cells expressing S1P3; read-out: S1P3 GTPyS EC50. Format: biochemical. Here is the method:
Membranes were prepared from CHO cells expressing S1P1 or S1P3 for use in ligand and […] binding studies. Cells were suspended in 50 mM TRIS, pH 7.4, 2 mM EDTA, 250 mM Sucrose (buffer A) and 1× Complete protease inhibitor cocktail (Roche), and disrupted at 4° C. by nitrogen decompression using a cell disruption bomb (Parr Instrument). Following centrifugation at 1000 RPM for 10 min at 4° C., the supernatant was suspended in buffer A and centrifuged again at 19000 RPM for 60 min at 4° C. The pellet was then suspended in 10 mM HEPES, pH 7.4, 1 mM EDTA, 250 mM Sucrose (Buffer B), and 1× Complete EDTA-free protease inhibitor cocktail and homogenized using a potter. Membranes were flash frozen in liquid nitrogen and stored at −80° C. [33P]sphingosine 1-phosphate (3000 Ci/mmol; American Radiolabeled Chemicals, Inc.) was added to test compounds in DMSO. Membranes and WGA SPA beads (GE Healthcare) were added to give a final volume of 100 μl in 96-well plates with assay concentrations of […] [33P]sphingosine 1-phosphate (respectively for S1P1 or S1P3), 50 mM HEPES, pH 7.5, 5 mM MgCl2, 100 mM NaCl, 0.4% fatty acid-free BSA, 1-5 μg/well of proteins and 100 μg/well of WGA SPA beads. Binding was performed for 60 min at room temperature on a shaker and bound radioactivity was measured on a PerkinElmer 1450 MicroBeta counter. Specific binding was calculated by subtracting remaining radioactivity in the presence of 1000-fold excess of unlabeled S1P. Binding data were analyzed using the GraphPad Prism program.
as §1, with “Measurements of ^35S-GTPγS Binding: Membranes (1 to 10 μg protein) prepared as described above, were incubated in 96-well Scintiplates (PerkinElmer) with test compounds diluted in DMSO, in 180 μl of 20 mM HEPES, pH 7.4, 10 mM MgCl2, 2 μg/well Saponin, 0.2% fatty acid free BSA (Assay buffer), 140 mM NaCl and 1.7 μM GDP. The” for “The”

pEC50: −log10 of the molar value.

Chain of S1P1 (P21453 whole entry, species assumed): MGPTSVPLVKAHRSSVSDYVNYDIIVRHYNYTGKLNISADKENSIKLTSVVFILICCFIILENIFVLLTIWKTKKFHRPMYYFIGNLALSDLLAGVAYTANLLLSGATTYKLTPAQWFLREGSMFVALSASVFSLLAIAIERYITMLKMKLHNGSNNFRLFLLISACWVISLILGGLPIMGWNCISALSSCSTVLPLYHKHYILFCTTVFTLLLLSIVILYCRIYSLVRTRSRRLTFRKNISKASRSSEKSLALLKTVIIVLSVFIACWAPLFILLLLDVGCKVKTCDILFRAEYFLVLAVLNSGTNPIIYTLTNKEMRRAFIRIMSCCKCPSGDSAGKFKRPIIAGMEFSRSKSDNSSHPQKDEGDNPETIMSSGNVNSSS
Chain of S1P3 (Q99500 whole entry, species assumed): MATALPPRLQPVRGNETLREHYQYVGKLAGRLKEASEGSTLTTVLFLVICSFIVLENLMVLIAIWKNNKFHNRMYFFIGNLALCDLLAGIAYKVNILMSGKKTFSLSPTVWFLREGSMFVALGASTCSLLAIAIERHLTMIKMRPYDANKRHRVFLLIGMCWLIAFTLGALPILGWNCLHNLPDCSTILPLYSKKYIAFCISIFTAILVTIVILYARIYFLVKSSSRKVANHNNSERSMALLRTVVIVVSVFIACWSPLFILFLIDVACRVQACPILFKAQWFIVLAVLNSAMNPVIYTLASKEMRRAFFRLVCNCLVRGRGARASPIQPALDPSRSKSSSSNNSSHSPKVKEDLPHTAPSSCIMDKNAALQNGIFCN

One may read the pEC50 as the EC50 on a negative log10 scale, so that one unit is a factor of ten. On to `CCCN(CC1CC1)c1cc(C(=O)Nc2ccc3[nH]ncc3c2)ncn1` [Example 1-45], for which the values for the negative-log EC50 (pEC50) on S1P1 and at S1P3 were 7.89 and 6.38, respectively.
`CCCN(c1cc(C(=O)Nc2ccc(S(N)(=O)=O)cc2C)ncn1)C(C)C` [Example 1-60]: the values for the pEC50 at S1P1 and at S1P3 were 7.29 and below 4.70, respectively.
The corresponding values for `O=C(Nc1ccc(O)cc1C(F)(F)F)c1cc(NC2CCCCC2)ncn1` [Example 1-15] are 6.42 and below 4.52.
In the same order, the values of `CCCN(CCC)c1cc(C(=O)Nc2ccc(S(N)(=O)=O)cc2C)ncn1` [Example 1-57] are 7.44 and below 4.70.
The corresponding values for `Cc1cc(O)ccc1NC(=O)c1cc(N(CC2CC2)C2CCCCC2)ncn1` [Example 1-33] are 7.61 and 4.00.
In the case of `O=C(Nc1cccc2[nH]ncc12)c1cc(N(CC2CC2)C2CCCCC2)ncn1` [Example 1-127], the values for the pEC50 on S1P1 and on S1P3 were 7.32 and below 4.70, respectively.
With `CCCN(CC1CC1)c1cc(C(=O)Nc2ccc(S(=O)(=O)NC)cc2C)ncn1` [Example 1-109], the negative logarithm of the EC50 (pEC50) was 7.20 on S1P1 and below 4.70 on S1P3.
`O=C(Nc1ccnc2ccccc12)c1cc(N(CC2CC2)C2CCCCC2)ncn1` [Example 1-46]: the pEC50 was 7.72 at S1P1 and 5.94 on S1P3.
Take `CN(c1cc(C(=O)Nc2ccc3[nH]ncc3c2)ncn1)C1CCCCC1` [Example 1-35]: the pEC50 at S1P1 was 6.38; on S1P3, below 4.70.
In the case of `CCC(C)Oc1cc(C(=O)Nc2ccc(O)cc2C)ncn1` (stereo not shown) [Example 1-36], the results for the negative logarithm of the EC50 (pEC50) on S1P1 and on S1P3 were 5.53 and below 4.70, respectively.
On to `O=C(Nc1cccc2[nH]ccc12)c1cc(N(CC2CC2)C2CCCCC2)ncn1` [Example 1-126], for which the pEC50 at S1P1 was 8.22; at S1P3, below 4.70.
Take `Cc1cc(S(N)(=O)=O)ccc1NC(=O)c1cc(N(CC2CC2)C2CCCCC2)ncn1` [Example 1-38]: the pEC50 on S1P1 is 8.70; at S1P3 it was 4.32.
Turning to `CCCN(CC1CC1)c1cc(C(=O)Nc2cc3cn[nH]c3cc2C)ncn1` [Example 1-71], the pEC50 at S1P1 was 7.92; at S1P3, below 4.70.
On to `CNS(=O)(=O)c1ccc(NC(=O)c2cc(N(CC3CC3)C3CCCCC3)ncn2)c(C)c1` [Example 1-105], for which the negative logarithm of the EC50 (pEC50) on S1P1 was 8.24; at S1P3, 5.61.
For `Cc1cc(S(=O)(=O)NCC(=O)O)ccc1NC(=O)c1cc(N(CC2CC2)C2CCCCC2)ncn1` [Example 1-61], the negative-log EC50 (pEC50) is 7.92 on S1P1 and 6.59 at S1P3.
`Cc1cc2[nH]ncc2cc1NC(=O)c1cc(N(CC2CC2)C2CCCCC2)ncn1` [Example 1-47]: the figures for the pEC50 on S1P1 and at S1P3 were 8.22 and 5.49, respectively.
The corresponding values for `O=C(O)CCCS(=O)(=O)c1ccc(NC(=O)c2cc(N(CC3CC3)C3CCCCC3)ncn2)cc1` [Example 1-132] are 7.40 and 7.07.
